Nine compounds from ChEMBL document CHEMBL4480424, “Bialternacins A-F, Aromatic Polyketide Dimers from an Endophytic Alternaria sp” (J Nat Prod, 2019) can be followed below.

For orientation: IC50 means the midpoint of a concentration-inhibition curve. Lower therefore signals higher potency.

Active and inactive are the calls of the source. The rule behind the calls is not given here.

This assay deals with Acetylcholinesterase (Homo sapiens, UniProt P22303). Kind of assay: Inhibition of AChE (unknown origin) using acetylthiocholine iodide as substrate after 5 mins by spectrophotometric analysis.
Acetylcholinesterase, sequence (P22303 whole entry): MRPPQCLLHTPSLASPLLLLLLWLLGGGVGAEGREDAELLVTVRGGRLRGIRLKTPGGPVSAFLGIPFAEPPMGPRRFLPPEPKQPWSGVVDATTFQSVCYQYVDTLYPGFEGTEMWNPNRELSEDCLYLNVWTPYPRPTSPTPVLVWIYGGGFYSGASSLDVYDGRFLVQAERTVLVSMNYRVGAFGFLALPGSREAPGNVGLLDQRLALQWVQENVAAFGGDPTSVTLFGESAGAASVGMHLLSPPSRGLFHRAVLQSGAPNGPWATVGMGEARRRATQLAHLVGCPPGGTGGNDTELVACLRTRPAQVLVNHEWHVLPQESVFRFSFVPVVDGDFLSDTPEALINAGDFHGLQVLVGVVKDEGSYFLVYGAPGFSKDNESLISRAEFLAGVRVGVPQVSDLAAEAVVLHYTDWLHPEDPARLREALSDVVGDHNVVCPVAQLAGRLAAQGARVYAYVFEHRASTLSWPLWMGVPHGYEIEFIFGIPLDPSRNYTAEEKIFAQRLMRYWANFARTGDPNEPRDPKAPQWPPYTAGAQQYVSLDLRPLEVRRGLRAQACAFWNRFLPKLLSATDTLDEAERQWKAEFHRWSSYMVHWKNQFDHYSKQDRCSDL
For `COc1cc(O)c(C(C)=O)c(-c2c(C)cc(O)c3oc4c(O)cc(C)c(-c5cc(OC)cc(O)c5C(=O)O)c4c23)c1`, the midpoint of inhibition, the IC50, lay at 68.3 µM.

For the compound `COc1cc(O)c2c(c1)C1=C(c3c(O)c(O)cc(C)c3-c3cc(OC)cc(O)c3C(=O)O)C(=O)C(O)=CC1(C)OC2=O` (stereo not given), the concentration for half-maximal inhibition (IC50) was found to be 15.5 µM and the inhibition result was “inactive”.

On to `COc1cc(O)c(C(=O)O)c(-c2c(C)cc(O)c3oc4c(c23)C2(OC(=O)c3c(O)cc(OC)cc32)C(C)=CC4=O)c1` (stereo in doubt; (+)-2), for which the inhibition result was “inactive”.

In the case of `COc1cc(O)c2c(c1)C1=CC3=Nc4cc(C)c(-c5cc(OC)cc(O)c5C(=O)O)cc4O[C@]3(O)C[C@]1(C)OC2=O`, the inhibition entry was “inactive”.

Regarding `COc1cc(O)c2c(c1)C1=C(C3=C4c5cc(OC)cc(O)c5C(=O)OC4(C)C=C(O)C3=O)C(=O)C(O)=CC1(C)OC2=O` (stereo in doubt; (+)-6), the inhibition result was “inactive”.

As to `COc1cc(O)c(C(=O)O)c(-c2c(C)cc(O)c3oc4c(c23)C2(OC(=O)c3c(O)cc(OC)cc32)C(C)=CC4=O)c1` (stereo in doubt; (-)-2), the inhibition entry is “inactive”.

For `COc1cc(O)c2c(c1)C1=CC3=Nc4cc(C)c(-c5cc(OC)cc(O)c5C(=O)O)cc4O[C@@]3(O)C[C@@]1(C)OC2=O`, the inhibition result is “inactive”.

For the compound `COc1cc(O)c(C(=O)O)c(-c2c(C)cc(O)c(O)c2-c2c(O)c(O)cc(C)c2-c2cc(OC)cc(O)c2C(=O)O)c1`, the inhibition result is “inactive”.

Turning to `COc1cc(O)c2c(c1)C1=C(C3=C4c5cc(OC)cc(O)c5C(=O)OC4(C)C=C(O)C3=O)C(=O)C(O)=CC1(C)OC2=O` (stereo in doubt; (-)-6), the inhibition entry is “inactive”.
